Data reported in the supplement of paper PMC10627819.
≈ marks a conversion by molar mass, not a printed value.

Experiments:
S. aureus DSM 20231 [1] = test system: S. aureus DSM 20231
S. aureus Newman [2] = test system: S. aureus Newman
S. pneumoniae D39V [3] = test system: S. pneumoniae D39V
S. aureus DSM 20231 [4] = experiment: fitness (endpoint OD595 vs no drug) (fraction); higher = more growth
Summary of the method: (§1)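 Fitness compares growth at the stationary-phase transition with the robust mean of no-drug control wells, as a ratio of optical densities. The ratio is capped at 1. Wells of 384-well plates held 30 µl, or 55 µl for S. pneumoniae, inoculated at OD595 0.01. Readings at OD595 every 30 min for 14 h at 37 °C were corrected against the first reading.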

S. pneumoniae D39V [5] = experiment: as above
Summary of the method: as §1

B. subtilis 168 [6] = test system: B. subtilis 168
B. subtilis 168 [7] = experiment: fitness (endpoint OD595 vs no drug) (fraction); higher = more growth
Summary of the method: as §1

S. aureus Newman [8] = experiment: as above
Summary of the method: as §1

CC[C@H]1OC(=O)[C@H](C)[C@@H](O[C@H]2C[C@@](C)(OC)[C@@H](O)[C@H](C)O2)[C@H](C)[C@@H](O[C@@H]2O[C@H](C)C[C@H](N(C)C)[C@H]2O)[C@](C)(OC)C[C@@H](C)C(=O)[C@H](C)[C@@H](O)[C@]1(C)O [Clarithromycin]
Conditions	MIC [µg/mL]
S. aureus DSM 20231 [1]	0.234 (≈ 0.313 µM)
S. aureus Newman [2]	0.5 (≈ 0.668 µM)
S. pneumoniae D39V [3]	0.5 (≈ 0.668 µM)

fitness
Conditions	0.0585 µg/mL	0.0625 µg/mL	0.117 µg/mL	0.125 µg/mL	0.234 µg/mL	0.25 µg/mL
S. aureus DSM 20231 [4]	0.94	–	0.691	–	0.0857	–
S. pneumoniae D39V [5]	–	0.568	–	0.346	–	0.148

CC(=O)O[C@H]1C[C@@]2(C)[C@@H](C[C@@H](O)[C@H]3[C@@]4(C)CC[C@@H](O)[C@@H](C)[C@@H]4CC[C@@]32C)/C1=C(\CCC=C(C)C)C(=O)O [Fusidic acid]
Conditions	MIC [µg/mL]
B. subtilis 168 [6]	0.5 (≈ 0.968 µM)
S. aureus Newman [2]	0.139 (≈ 0.269 µM)
S. pneumoniae D39V [3]	4 (≈ 7.74 µM)

O=C(O[C@@H]1Cc2c(O)cc(O)cc2O[C@@H]1c1cc(O)c(O)c(O)c1)c1cc(O)c(O)c(O)c1 [EGCG]
Conditions	MIC [µg/mL]
B. subtilis 168 [6]	50 (≈ 109 µM)
S. aureus DSM 20231 [1]	50 (≈ 109 µM)
S. aureus Newman [2]	50 (≈ 109 µM)
S. pneumoniae D39V [3]	400 (≈ 873 µM)

fitness
Conditions	B. subtilis 168 [7]	S. aureus DSM 20231 [4]	S. aureus Newman [8]	S. pneumoniae D39V [5]
6.25 µg/mL	0.91	–	–	–
12.5 µg/mL	0.709	0.841	0.778	0.946
25 µg/mL	0.34	0.776	0.714	0.964
50 µg/mL	–	0.795	0.671	0.987

CN[C@H](CC(C)C)C(=O)N[C@H]1C(=O)N[C@@H](CC(N)=O)C(=O)N[C@H]2C(=O)N[C@H]3C(=O)N[C@H](C(=O)N[C@H](C(=O)O)c4cc(O)cc(O)c4-c4cc3ccc4O)[C@H](O)c3ccc(c(Cl)c3)Oc3cc2cc(c3O[C@@H]2O[C@H](CO)[C@@H](O)[C@H](O)[C@H]2O[C@H]2C[C@](C)(N)[C@H](O)[C@H](C)O2)Oc2ccc(cc2Cl)[C@H]1O [Vancomycin]
Conditions	MIC [µg/mL]
B. subtilis 168 [6]	0.375 (≈ 0.259 µM)
S. pneumoniae D39V [3]	0.3 (≈ 0.207 µM)

Conditions	fitness
B. subtilis 168 [7], 0.0468 µg/mL	0.997
B. subtilis 168 [7], 0.0935 µg/mL	0.924
B. subtilis 168 [7], 0.0938 µg/mL	0.853
B. subtilis 168 [7], 0.187 µg/mL	0.0481
B. subtilis 168 [7], 0.1875 µg/mL	0.169
B. subtilis 168 [7], 0.375 µg/mL	0.0404
S. aureus DSM 20231 [4], 0.1875 µg/mL	≥ 1
S. aureus DSM 20231 [4], 0.375 µg/mL	≥ 1
S. aureus DSM 20231 [4], 0.5 µg/mL	0.981
S. aureus DSM 20231 [4], 0.75 µg/mL	≥ 1
S. aureus DSM 20231 [4], 1 µg/mL	0.977
S. aureus DSM 20231 [4], 2 µg/mL	0.992
S. aureus Newman [8], 0.1875 µg/mL	≥ 1
S. aureus Newman [8], 0.375 µg/mL	0.99
S. aureus Newman [8], 0.75 µg/mL	0.999
S. pneumoniae D39V [5], 0.125 µg/mL	0.97
S. pneumoniae D39V [5], 0.25 µg/mL	0.489
S. pneumoniae D39V [5], 0.5 µg/mL	0.159

CCC[C@@H]1C[C@@H](C(=O)N[C@@H]([C@H]2O[C@H](SC)[C@H](O)[C@@H](O)[C@H]2O)[C@@H](C)O)N(C)C1 [Lincomycin]
Conditions	MIC [µg/mL]
S. aureus DSM 20231 [1]	0.4 (≈ 0.984 µM)
S. aureus Newman [2]	0.4 (≈ 0.984 µM)
S. pneumoniae D39V [3]	1.6 (≈ 3.94 µM)

fitness
Conditions	0.1 µg/mL	0.2 µg/mL	0.4 µg/mL	0.8 µg/mL	1.6 µg/mL
B. subtilis 168 [7]	0.862	0.823	0.852	0.878	0.854
S. aureus DSM 20231 [4]	0.932	0.767	0.315	–	–
S. pneumoniae D39V [5]	–	0.648	0.432	0.211	–

CCC[C@@H]1C[C@@H](C(=O)N[C@@H]([C@H]2O[C@H](SC)[C@H](O)[C@@H](O)[C@H]2O)[C@H](C)Cl)N(C)C1 [Clindamycin]
Conditions	MIC [µg/mL]
B. subtilis 168 [6]	1 (≈ 2.35 µM)
S. aureus DSM 20231 [1]	0.125 (≈ 0.294 µM)
S. aureus Newman [2]	0.125 (≈ 0.294 µM)
S. pneumoniae D39V [3]	0.125 (≈ 0.294 µM)

Conditions	fitness
B. subtilis 168 [7], 0.0625 µg/mL	0.596
B. subtilis 168 [7], 0.125 µg/mL	0.432
B. subtilis 168 [7], 0.25 µg/mL	0.393
S. aureus DSM 20231 [4], 0.0312 µg/mL	0.747
S. aureus DSM 20231 [4], 0.0625 µg/mL	0.246
S. aureus DSM 20231 [4], 0.125 µg/mL	0.0653
S. aureus Newman [8], 0.0312 µg/mL	0.775
S. aureus Newman [8], 0.0625 µg/mL	0.432
S. aureus Newman [8], 0.125 µg/mL	0.108
S. pneumoniae D39V [5], 0.015 µg/mL	0.869
S. pneumoniae D39V [5], 0.03 µg/mL	0.682
S. pneumoniae D39V [5], 0.06 µg/mL	0.456

COc1cc(Cc2cnc(N)nc2N)cc(OC)c1OC [Trimethoprim]
Conditions	MIC [µg/mL]
B. subtilis 168 [6]	2.5 (≈ 8.61 µM)
S. pneumoniae D39V [3]	4 (≈ 13.8 µM)

fitness
Conditions	0.125 µg/mL	0.25 µg/mL	0.5 µg/mL	1 µg/mL	2 µg/mL
B. subtilis 168 [7]	0.623	0.478	0.45	0.334	0.31
S. aureus DSM 20231 [4]	0.8	0.662	0.143	–	–
S. aureus Newman [8]	0.857	0.725	0.248	–	–
S. pneumoniae D39V [5]	–	–	0.924	0.658	0.306

C[C@@H](O)[C@H]1C(=O)N2C(C(=O)O)=C(SCCNC=N)C[C@H]12 [Imipenem]
Conditions	MIC [µg/mL]
B. subtilis 168 [6]	0.5 (≈ 1.67 µM)
S. pneumoniae D39V [3]	0.062 (≈ 0.207 µM)

fitness
Conditions	0.005 µg/mL	0.01 µg/mL	0.02 µg/mL	0.0625 µg/mL	0.125 µg/mL	0.25 µg/mL
B. subtilis 168 [7]	–	–	–	0.857	0.751	0.466
S. pneumoniae D39V [5]	0.961	0.95	0.943	–	–	–

COc1c(N2C[C@@H]3CCCN[C@@H]3C2)c(F)cc2c(=O)c(C(=O)O)cn(C3CC3)c12 [Moxifloxacin]
Conditions	MIC [µg/mL]
S. aureus DSM 20231 [1]	0.033 (≈ 0.0822 µM)
S. aureus Newman [2]	0.033 (≈ 0.0822 µM)
S. pneumoniae D39V [3]	0.25 (≈ 0.623 µM)

Conditions	fitness
B. subtilis 168 [7], 0.0312 µg/mL	0.0397
B. subtilis 168 [7], 0.0625 µg/mL	0.0388
B. subtilis 168 [7], 0.125 µg/mL	0.0181
B. subtilis 168 [7], 2 µg/mL	0.0291
B. subtilis 168 [7], 4 µg/mL	0.0224
B. subtilis 168 [7], 8 µg/mL	0.0114
S. aureus DSM 20231 [4], 0.0075 µg/mL	0.888
S. aureus DSM 20231 [4], 0.015 µg/mL	0.824
S. aureus DSM 20231 [4], 0.03 µg/mL	0.665
S. aureus Newman [8], 0.0075 µg/mL	0.748
S. aureus Newman [8], 0.015 µg/mL	0.642
S. aureus Newman [8], 0.03 µg/mL	0.0899
S. pneumoniae D39V [5], 0.0037 µg/mL	0.9
S. pneumoniae D39V [5], 0.0075 µg/mL	0.916
S. pneumoniae D39V [5], 0.015 µg/mL	0.862
S. pneumoniae D39V [5], 0.0312 µg/mL	0.134
S. pneumoniae D39V [5], 0.0625 µg/mL	0.088
S. pneumoniae D39V [5], 0.125 µg/mL	0.0638

N[C@@H]1CONC1=O [Cycloserine D]
Conditions	MIC [µg/mL]
B. subtilis 168 [6]	0.5 (≈ 4.9 µM)
S. aureus DSM 20231 [1]	1.5 (≈ 14.7 µM)
S. aureus Newman [2]	1.5 (≈ 14.7 µM)
S. pneumoniae D39V [3]	8.75 (≈ 85.7 µM)

Conditions	fitness
B. subtilis 168 [7], 0.125 µg/mL	0.963
B. subtilis 168 [7], 0.25 µg/mL	0.948
B. subtilis 168 [7], 0.5 µg/mL	0.966
S. aureus DSM 20231 [4], 0.375 µg/mL	≥ 1
S. aureus DSM 20231 [4], 0.75 µg/mL	≥ 1
S. aureus DSM 20231 [4], 1.5 µg/mL	≥ 1
S. aureus Newman [8], 0.375 µg/mL	≥ 1
S. aureus Newman [8], 0.75 µg/mL	≥ 1
S. aureus Newman [8], 1.5 µg/mL	0.983
S. pneumoniae D39V [5], 2.188 µg/mL	0.872
S. pneumoniae D39V [5], 4.375 µg/mL	0.81
S. pneumoniae D39V [5], 8.75 µg/mL	0.533

O=C1CN(/N=C/c2ccc([N+](=O)[O-])o2)C(=O)N1 [Nitrofurantoin]
Conditions	MIC [µg/mL]
B. subtilis 168 [6]	16 (≈ 67.2 µM)
S. aureus DSM 20231 [1]	8.89 (≈ 37.3 µM)
S. aureus Newman [2]	10 (≈ 42 µM)
S. pneumoniae D39V [3]	16 (≈ 67.2 µM)

S. pneumoniae D39V [5]
Conditions	fitness
2 µg/mL	0.941
4 µg/mL	0.888
8 µg/mL	0.724

CCCCCCCCCC(=O)N[C@H]1[C@H](Oc2c3cc4cc2Oc2ccc(cc2Cl)[C@@H](O[C@@H]2O[C@H](CO)[C@@H](O)[C@H](O)[C@H]2NC(C)=O)[C@@H]2NC(=O)[C@H](NC(=O)[C@@H]4NC(=O)[C@H]4NC(=O)[C@@H](Cc5ccc(c(Cl)c5)O3)NC(=O)[C@H](N)c3ccc(O)c(c3)Oc3cc(O)cc4c3)c3ccc(O)c(c3)-c3c(O[C@H]4O[C@H](CO)[C@@H](O)[C@H](O)[C@@H]4O)cc(O)cc3[C@@H](C(=O)O)NC2=O)O[C@H](CO)[C@@H](O)[C@@H]1O [Teicoplanin]
main component drawn
Conditions	MIC [µg/mL]
S. aureus DSM 20231 [1]	0.7 (≈ 0.372 µM)
S. aureus Newman [2]	0.7 (≈ 0.372 µM)
S. pneumoniae D39V [3]	0.062 (≈ 0.033 µM)

fitness, main component drawn
Conditions	0.1562 µg/mL	0.3125 µg/mL	0.625 µg/mL	1.25 µg/mL
S. aureus DSM 20231 [4]	≥ 1	≥ 1	≥ 1	≥ 1
S. aureus Newman [8]	≥ 1	≥ 1	≥ 1	–

O=C(N[C@H](CO)[C@H](O)c1ccc([N+](=O)[O-])cc1)C(Cl)Cl [Chloramphenicol]
Conditions	MIC [µg/mL]
S. aureus DSM 20231 [1]	3.5 (≈ 10.8 µM)
S. aureus Newman [2]	3 (≈ 9.28 µM)
S. pneumoniae D39V [3]	2 (≈ 6.19 µM)

Conditions	fitness
B. subtilis 168 [7], 0.5 µg/mL	0.834
B. subtilis 168 [7], 1 µg/mL	0.659
S. aureus DSM 20231 [4], 0.75 µg/mL	0.878
S. aureus DSM 20231 [4], 1.5 µg/mL	0.711
S. aureus DSM 20231 [4], 3 µg/mL	0.0899
S. aureus Newman [8], 0.75 µg/mL	0.804
S. aureus Newman [8], 1.5 µg/mL	0.514
S. aureus Newman [8], 3 µg/mL	0.126
S. pneumoniae D39V [5], 0.375 µg/mL	0.893
S. pneumoniae D39V [5], 0.75 µg/mL	0.722
S. pneumoniae D39V [5], 1.5 µg/mL	0.407
